According to patent US8030498B2, “Benzoylpyrazole compounds and herbicides containing them” (Ishihara Sangyo Kaisha, Ltd., priority 2005, dated 2011):

What was measured:
[1] = system: greenfoxtail (Setaria viridis L.); experiment: Test Example 1: foliar treatment, growth inhibition rate, greenfoxtail; format: in vivo; settings: 31 g/ha active ingredient, visually observed 17th to 23rd day after application
Procedure, shortened: (§1)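 Visual scoring of growth inhibition, 0% (untreated) to 100% (complete kill), on days 17–23 following post-emergence spray of formulated compound in water (500 L/ha, 0.1 vol % spreader); plants treated at set leaf stages, e.g. corn 2.0–3.5, wheat 1.7–3.4.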

[2] = system: redroot pigweed (Amaranthus retroflexus L.); experiment: Test Example 1: foliar treatment, growth inhibition rate, redroot pigweed; format: in vivo; settings: 31 g/ha active ingredient, visually observed 17th to 23rd day after application
Procedure, shortened: as §1

prickly sida = experiment: Test Example 2: soil application on the day after sowing, growth inhibition rate, prickly sida; format: in vivo, Sida spinosa L.; settings: 250 g/ha active ingredient, observed on 19th to 24th day
Procedure, shortened: (§2)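 Pre-emergence soil treatment: one day post-sowing in upland soil, compound formulations at set active-ingredient rates were applied in 500 L/ha water. Visual rating of growth inhibition (0% untreated-equivalent to 100% complete kill) followed on days 19–24 after application.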

[3] = system: soybean (Glycine max Merr.); experiment: Test Example 1: foliar treatment, growth inhibition rate, soybean; format: in vivo; settings: 31 g/ha active ingredient, visually observed 17th to 23rd day after application
Procedure, shortened: as §1

greenfoxtail = experiment: Test Example 2: soil application on the day after sowing, growth inhibition rate, greenfoxtail; format: in vivo, Setaria viridis L.; settings: 250 g/ha active ingredient, observed on 19th to 24th day
Procedure, shortened: as §2

corn = experiment: Test Example 2: soil application on the day after sowing, growth inhibition rate, corn; format: in vivo, Zea mays L.; settings: 250 g/ha active ingredient, observed on 19th to 24th day
Procedure, shortened: as §2

crabgrass = experiment: Test Example 2: soil application on the day after sowing, growth inhibition rate, crabgrass; format: in vivo, Digitaria sanguinalis L.; settings: 250 g/ha active ingredient, observed on 19th to 24th day
Procedure, shortened: as §2

redroot pigweed = experiment: Test Example 2: soil application on the day after sowing, growth inhibition rate, redroot pigweed; format: in vivo, Amaranthus retroflexus L.; settings: 250 g/ha active ingredient, observed on 19th to 24th day
Procedure, shortened: as §2

rice (Oryza sativa L.) = experiment: Test Example 1: foliar treatment, growth inhibition rate, rice; format: in vivo; settings: 31 g/ha active ingredient, visually observed 17th to 23rd day after application
Procedure, shortened: as §1

velvetleaf = experiment: Test Example 2: soil application on the day after sowing, growth inhibition rate, velvetleaf; format: in vivo, Abutilon theophrasti MEDIC.; settings: 250 g/ha active ingredient, observed on 19th to 24th day
Procedure, shortened: as §2

corn (Zea mays L.) = experiment: Test Example 1: foliar treatment, growth inhibition rate, corn; format: in vivo; settings: 31 g/ha active ingredient, visually observed 17th to 23rd day after application
Procedure, shortened: as §1

rice = experiment: Test Example 2: soil application on the day after sowing, growth inhibition rate, rice; format: in vivo, Oryza sativa L.; settings: 250 g/ha active ingredient, observed on 19th to 24th day
Procedure, shortened: as §2

wheat = experiment: Test Example 2: soil application on the day after sowing, growth inhibition rate, wheat; format: in vivo, Triticum spp.; settings: 250 g/ha active ingredient, observed on 19th to 24th day
Procedure, shortened: as §2

[4] = system: crabgrass (Digitaria sanguinalis L.); experiment: Test Example 1: foliar treatment, growth inhibition rate, crabgrass; format: in vivo; settings: 31 g/ha active ingredient, visually observed 17th to 23rd day after application
Procedure, shortened: as §1

[5] = system: velvetleaf (Abutilon theophrasti MEDIC.); experiment: Test Example 1: foliar treatment, growth inhibition rate, velvetleaf; format: in vivo; settings: 31 g/ha active ingredient, visually observed 17th to 23rd day after application
Procedure, shortened: (§3)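 Potted upland soil; compounds as wettable powders or emulsifiable concentrates diluted in water at 500 L/ha plus 0.1 vol % spreader, foliar-sprayed at defined leaf stages (rice 1.0–2.5, wheat 1.7–3.4, corn 2.0–3.5, greenfoxtail 1.0–3.0). Growth inhibition (0–100%) scored visually 17–23 days after application.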

soybean = experiment: Test Example 2: soil application on the day after sowing, growth inhibition rate, soybean; format: in vivo, Glycine max Merr.; settings: 250 g/ha active ingredient, observed on 19th to 24th day
Procedure, shortened: as §2

wheat (Triticum spp.) = experiment: Test Example 1: foliar treatment, growth inhibition rate, wheat; format: in vivo; settings: 31 g/ha active ingredient, visually observed 17th to 23rd day after application
Procedure, shortened: as §1

[6] = system: prickly sida (Sida spinosa L.); experiment: Test Example 1: foliar treatment, growth inhibition rate, prickly sida; format: in vivo; settings: 31 g/ha active ingredient, visually observed 17th to 23rd day after application
Procedure, shortened: as §1

barnyardgrass = experiment: Test Example 2: soil application on the day after sowing, growth inhibition rate, barnyardgrass; format: in vivo, Echinochloa crus-galli L.; settings: 250 g/ha active ingredient, observed on 19th to 24th day
Procedure, shortened: as §2

[7] = system: barnyardgrass (Echinochloa crus-galli L.); experiment: Test Example 1: foliar treatment, growth inhibition rate, barnyardgrass; format: in vivo; settings: 31 g/ha active ingredient, visually observed 17th to 23rd day after application
Procedure, shortened: as §3

Structure (SMILES)	Growth inhibition rate (%) redroot pigweed [2]	Growth inhibition rate (%) Soybean [3]	Growth inhibition rate (%) Prickly sida [6]	Growth inhibition rate (%) Greenfoxtail [1]	Growth inhibition rate (%) Prickly sida (prickly sida)	Growth inhibition rate (%) Greenfoxtail (greenfoxtail)	Growth inhibition rate (%) Corn (corn)	Growth inhibition rate (%) Crabgrass (crabgrass)	Growth inhibition rate (%) redroot pigweed (redroot pigweed)	Growth inhibition rate (%) Rice (rice (Oryza sativa L.))	Growth inhibition rate (%) Velvetleaf (velvetleaf)	Growth inhibition rate (%) Corn (corn (Zea mays L.))	Growth inhibition rate (%) Rice (rice)	Growth inhibition rate (%) Wheat (wheat)	Growth inhibition rate (%) Crabgrass [4]	Growth inhibition rate (%) Velvetleaf [5]	Growth inhibition rate (%) Soybean (soybean)	Growth inhibition rate (%) Wheat (wheat (Triticum spp.))	Growth inhibition rate (%) Barnyardgrass (barnyardgrass)	Growth inhibition rate (%) Barnyardgrass [7]	further results
CCSC(=O)Oc1c(C(=O)c2ccc(S(C)(=O)=O)c(OC)c2C)cnn1C [Compound No. 35, 5-(ethylthio)carbonyloxy-1-methylpyrazol-4-yl 3-(methoxy)-2-methyl-4-(methylsulfonyl)phenyl ketone]	90%	90%	40%																		pest or weed control at 31 g/ha ([1]; Setaria viridis): 100%; inhibition at 250 g/ha (prickly sida; Sida spinosa): 90%; inhibition at 250 g/ha (greenfoxtail; Setaria viridis): 70%; inhibition at 250 g/ha (corn; Zea mays): 0%; inhibition at 250 g/ha (crabgrass; Digitaria sanguinalis): 100%; inhibition at 250 g/ha (redroot pigweed; Amaranthus retroflexus): 95%; pest or weed control at 31 g/ha (rice (Oryza sativa L.); Oryza sativa): 80%; inhibition at 250 g/ha (velvetleaf; Abutilon theophrasti): 20%; pest or weed control at 31 g/ha (corn (Zea mays L.); Zea mays): 0%; inhibition at 250 g/ha (rice; Oryza sativa): 90%; inhibition at 250 g/ha (wheat; Triticum aestivum): 0%; pest or weed control at 31 g/ha ([4]; Digitaria sanguinalis): 80%; pest or weed control at 31 g/ha ([5]; Abutilon theophrasti): 80%; inhibition at 250 g/ha (soybean; Glycine max): 0%; pest or weed control at 31 g/ha (wheat (Triticum spp.); Triticum): 0%; inhibition at 250 g/ha (barnyardgrass; Echinochloa crus-galli): 90%; pest or weed control at 31 g/ha ([7]; Echinochloa crus-galli): 90%
CCCSC(=O)Oc1c(C(=O)c2ccc(S(C)(=O)=O)c(C(=O)OC)c2C)cnn1CC [compound 85]	95%	98%	98%	100%	100%	100%	10%	100%	98%	95%	100%	10%	100%	0%	98%	98%	50%	60%	100%	98%	
CCOC(=O)c1c(S(C)(=O)=O)ccc(C(=O)c2cnn(CC)c2OC(=O)SCC)c1Cl [compound 59]	80%	70%	80%	70%	98%	100%	0%	100%	100%	50%	100%	0%	80%	10%	80%	75%	10%	10%	100%	90%	
CSC(=O)Oc1c(C(=O)c2ccc(S(C)(=O)=O)c(C3=NOCC3)c2C)cnn1C [compound 40]	90%	90%	70%	95%	85%	100%	0%	100%	100%	70%	90%	10%	90%	10%	80%	90%	60%	0%	100%	95%	
CCCSC(=O)Oc1c(C(=O)c2ccc(S(C)(=O)=O)c(OCCOC)c2C)cnn1C [compound 219]	100%	100%	70%	100%	80%	100%	0%	100%	100%	80%	100%	0%	95%	0%	100%	100%	0%	0%	100%	100%	
CCOc1c(S(C)(=O)=O)ccc(C(=O)c2cnn(CC)c2OC(=O)SCC)c1C [compound 58]	90%	98%	70%	100%	70%	70%	0%	100%	90%	80%	10%	0%	70%	0%	98%	100%	0%	40%	60%	95%	
